The source of these data is article PMC7782785, “Outer-membrane-acting peptides and lipid II-targeting antibiotics cooperatively kill Gram-negative pathogens” (Communications Biology, 2021).

Data set [1] relates to K. pneumoniae LMG 20218. The conditions noted are these: K. pneumoniae. As for the experimental part:
For the synergy test, standard checkerboard broth microdilution assays were conducted to test the synergistic effect of combined antimicrobials using the same condition as before[51],[56]. […] The initial concentration of both peptides was their individual MIC. 50 µL fresh bacterial suspension prepared as above was added to the wells already containing the antimicrobial compound mixture to achieve 100 µL final volume per well.
The fractional inhibitory concentration (FIC) indices[57] were calculated using the formula FICI = FICa + FICb = MICac/MICa + MICbc/MICb, to determine whether the combination is additive, synergistic or antagonistic[51],[57]. The MICa and MICb is the MIC of compound A or B alone, respectively. MICac is the MIC of compound A in combination with compound B and MICbc is the MIC of compound B when it was combined with compound A. The FIC corresponds to the MIC of a compound in combination with the other compound, divided by the MIC of the compound alone. FICa is FIC of compound A while FICb is FIC of compound B. The FICI was interpreted according to EUCAST[58] as follows: synergistic, FICI ≤ 0.5; additive,0.5 < FICI ≤ 1; indifferent, 1 < FICI < 2; antagonistic, FICI ≥ 2.
The condition for the tests and the analysis of the plates were performed as described above for the MIC tests.

Data set [2] has as its system HEK-293 cells. Put plainly: Cytotoxicity, cell viability (CellTiter-Glo). The conditions noted are these: for Cell viability (% of control): HEK-293, CellTiter-Glo.
Protocol: 96-well plates were seeded with HEK-293 cells at a concentration of 3*10^5 cells/well in 100 µL of DMEM growth medium supplemented with 1% NEAA and 10% FBS. Border wells were filled with 100 µL of sterile PBS. […] ATP levels were measured by adding 50 µL of CellTiter-Glo reagent (Promega, Madison, US) to each well, and luminescence was measured with a SpectraMax i3 microplate reader after 5 minutes of incubation. The potential effect of the tested compounds on cell viability was determined by comparing the signal obtained in the presence of different concentrations of the compounds with those obtained in the control wells. All these tests were performed in triplicate.

On to `CN[C@H](CC(C)C)C(=O)N[C@H]1C(=O)N[C@@H](CC(N)=O)C(=O)N[C@H]2C(=O)N[C@H]3C(=O)N[C@H](C(=O)N[C@H](C(=O)O)c4cc(O)cc(O)c4-c4cc3ccc4O)[C@H](O)c3ccc(c(Cl)c3)Oc3cc2cc(c3O[C@@H]2O[C@H](CO)[C@@H](O)[C@H](O)[C@H]2O[C@H]2C[C@](C)(N)[C@H](O)[C@H](C)O2)Oc2ccc(cc2Cl)[C@H]1O` [Vancomycin], for which the “vancomycin concentration needed in combination with D-11” value in data set [1] (checkerboard after the addition of excess LPS (1.0 mg/mL)) was “at least 32 µM”. In addition, in data set [1] (checkerboard without the addition of LPS), the “vancomycin concentration inhibiting growth in combination with 1 µM D-11” value amounted to 2 µM. The “Cell viability (% of control)” value in data set [2] (22 µM (22/22 µM for the combination), replicate 1) is 96 % of control; in data set [2] (22 µM (22/22 µM for the combination), replicate 2), 107 % of control; in data set [2] (22 µM (22/22 µM for the combination), replicate 3) it was 113 % of control; in data set [2] (44 µM (44/44 µM for the combination), replicate 1) it was 110 % of control; in data set [2] (44 µM (44/44 µM for the combination), replicate 2) it was 102 % of control; in data set [2] (44 µM (44/44 µM for the combination), replicate 3), 114 % of control. Moreover, the “Cell viability (% of control)” value in data set [2] (88 µM (88/88 µM for the combination), replicate 1) was 103 % of control; in data set [2] (88 µM (88/88 µM for the combination), replicate 3), 114 % of control. For the same compound, in data set [2] (all the concentrations tested (up to 88 µM)), the “effect on viability of HEK-293 cells” value is “did not affect the viability”.
